Counter-ions that a name gives are not always drawn.
Experiments:
OAT3 = target: T1, OAT3 (Homo sapiens, UniProt Q8TCC7); experiment: Uptake of UTs in HEK293T-OAT3 cells; type: cell-based; conditions: 100 μM, 30 min, 37 °C; for uptake of free UT in OAT3-overexpressing cells vs control cells: without HSA; for uptake of HSA-bound UT in OAT3-overexpressing cells vs control cells: with HSA
T1 sequence (Q8TCC7 1-542): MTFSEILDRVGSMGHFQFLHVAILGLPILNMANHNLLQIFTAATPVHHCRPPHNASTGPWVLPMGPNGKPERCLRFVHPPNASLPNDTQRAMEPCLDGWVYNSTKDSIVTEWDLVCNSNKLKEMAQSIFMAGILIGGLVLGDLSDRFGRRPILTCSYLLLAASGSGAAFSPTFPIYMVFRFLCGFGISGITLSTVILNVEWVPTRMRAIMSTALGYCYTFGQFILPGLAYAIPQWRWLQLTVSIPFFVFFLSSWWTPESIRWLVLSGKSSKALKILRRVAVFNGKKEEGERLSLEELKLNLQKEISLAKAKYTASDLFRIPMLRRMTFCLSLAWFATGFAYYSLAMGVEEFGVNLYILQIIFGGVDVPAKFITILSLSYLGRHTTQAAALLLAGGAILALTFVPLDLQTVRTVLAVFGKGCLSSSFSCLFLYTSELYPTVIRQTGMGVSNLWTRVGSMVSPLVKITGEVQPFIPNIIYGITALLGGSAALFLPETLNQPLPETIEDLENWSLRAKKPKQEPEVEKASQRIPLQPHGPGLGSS

serum protein = experiment: Protein-binding ratio of UTs in rat serum; type: in vitro ADME, rats; conditions: ultrafiltration at 37 °C
OAT1 = target: T2, OAT1 (Homo sapiens, UniProt Q4U2R8); experiment: Uptake of UTs in HEK293T-OAT1 cells; type: cell-based; conditions: 100 μM, 30 min, 37 °C; for uptake of HSA-bound UT in OAT1-overexpressing cells vs control cells: with HSA; for uptake of free UT in OAT1-overexpressing cells vs control cells: without HSA
T2 sequence (Q4U2R8 1-563): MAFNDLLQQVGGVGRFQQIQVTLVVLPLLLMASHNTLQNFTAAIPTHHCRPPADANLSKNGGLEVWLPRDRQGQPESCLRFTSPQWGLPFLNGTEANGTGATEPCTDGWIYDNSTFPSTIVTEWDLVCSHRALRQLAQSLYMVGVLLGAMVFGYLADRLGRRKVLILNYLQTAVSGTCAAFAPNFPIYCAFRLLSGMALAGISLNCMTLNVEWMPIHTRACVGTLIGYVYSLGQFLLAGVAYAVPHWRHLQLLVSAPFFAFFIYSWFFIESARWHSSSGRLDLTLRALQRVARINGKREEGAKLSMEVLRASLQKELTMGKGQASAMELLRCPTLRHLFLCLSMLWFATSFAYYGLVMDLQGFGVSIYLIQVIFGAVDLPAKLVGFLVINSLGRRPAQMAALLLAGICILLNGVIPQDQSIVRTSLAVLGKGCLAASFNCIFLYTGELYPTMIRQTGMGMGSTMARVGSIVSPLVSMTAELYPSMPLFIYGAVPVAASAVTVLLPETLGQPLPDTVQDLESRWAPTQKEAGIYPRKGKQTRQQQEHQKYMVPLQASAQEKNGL

rOAT1/3 = experiment: rOAT1/3−/− rat experiment; type: in vivo, rats; conditions: Fig. S7F
rMRP4 = type: in vivo, rats; conditions: rat, in vivo
[1] = Correlation between biomarkers and cefmetazole pharmacokinetics in rats; type: in vivo; conditions: PROB 60 and 120 mg/kg 7 days; cefmetazole 100 mg/kg i.v.
HSA = conditions: 4% HSA, about 100 μM UT, 37 °C, 2 h; cited from earlier work
MRP4 = experiment: Intracellular accumulation of UTs in MRP4-overexpressing cells; type: cell-based, human; conditions: 100 μM, 30 min, 37 °C, 4 mM ATP
rOATs = rOATs inhibition experiment
[2] = type: in vivo, rats; conditions: rats; for renal excretion with MK-571 vs control: MK-571 20 mg/kg; for renal excretion with PROB vs control: PROB 60 mg/kg; for Renal clearance half-life (t1/2), Control: 2 mg/kg i.v., urine 0-12 h

Cn1cnc2c(ncn2[C@@H]2O[C@H](CO)[C@@H](O)[C@H]2O)c1=O [1-methyl-inosine]
uptake of free UT in OAT3-overexpressing cells vs control cells (OAT3): significantly higher

N[C@@H](Cc1ccc(O)c(O)c1)C(=O)O [3-(3,4-dihydroxyphenyl)-L-alanine]
Protein-binding ratio, Normal rats in vivo (%) (n = 6) (serum protein): < 70%

O=S(=O)(O)Oc1c[nH]c2ccccc12 [3-indoxyl sulfate]
uptake of HSA-bound UT in OAT3-overexpressing cells vs control cells (OAT3): no significant change
uptake of free UT in OAT3-overexpressing cells vs control cells (OAT3): substantially elevated

OC[C@H]1O[C@@H](Oc2c[nH]c3ccccc23)[C@H](O)[C@@H](O)[C@@H]1O [3-indoxyl-β-D-glucopyranoside]
Protein-binding ratio, Normal rats in vivo (%) (n = 6) (serum protein): > 90%
uptake of HSA-bound UT in OAT3-overexpressing cells vs control cells (OAT3): markedly increased
uptake of free UT in OAT3-overexpressing cells vs control cells (OAT3): markedly increased

CCc1ccc(OS(=O)(=O)[O-])cc1.[K+] [4-ethylphenyl sulfate]
Protein-binding ratio, Normal rats in vivo (%) (n = 6) (serum protein): > 90%
uptake of HSA-bound UT in OAT1-overexpressing cells vs control cells (OAT1): no significant change
uptake of free UT in OAT1-overexpressing cells vs control cells (OAT1): substantially elevated
uptake of HSA-bound UT in OAT3-overexpressing cells vs control cells (OAT3): no significant change
uptake of free UT in OAT3-overexpressing cells vs control cells (OAT3): substantially elevated

CN1CC(=O)NC1=N [Creatinine, creatinine]
Protein-binding ratio, Normal rats in vivo (%) (n = 6) (serum protein): less than 24%
renal elimination in rOAT1/3−/− rats (rOAT1/3): unaffected
renal clearance rate in rMRP4−/− rats vs WT (rMRP4): not significantly altered
renal uptake ratio in rMRP4−/− rats vs WT (rMRP4): not significantly altered
serum levels in rMRP4−/− rats vs WT (rMRP4): not significantly altered
plasma concentrations in rats treated with PROB [1]: did not change significantly
Protein-binding ratio, HSA binding in vitro (%) (n = 3) (HSA): below 50%

Nc1ccccc1C(=O)C[C@@H](N)C(=O)O [D-kynurenine]
Protein-binding ratio, Normal rats in vivo (%) (n = 6) (serum protein): > 90%
uptake of HSA-bound UT in OAT1-overexpressing cells vs control cells (OAT1): markedly increased
uptake of free UT in OAT1-overexpressing cells vs control cells (OAT1): markedly increased

O=C(O)CNC(=O)c1ccccc1 [Hippuric acid, hippuric acid]
uptake of HSA-bound UT in OAT3-overexpressing cells vs control cells (OAT3): dramatically increased
uptake of free UT in OAT3-overexpressing cells vs control cells (OAT3): dramatically increased
intracellular accumulation in MRP4-overexpressing cells vs control cells (MRP4): slightly decreased
renal elimination in rOAT1/3−/− rats (rOAT1/3): substantially inhibited
serum levels in rats treated with PROB vs control (rOATs; PROB 30, 60, 120 mg/kg oral, 7 days): no significant change

O=C(O)Cc1c[nH]c2ccccc12 [Indole-3-acetic acid, indole-3-acetic acid]
uptake of HSA-bound UT in OAT1-overexpressing cells vs control cells (OAT1): significantly increased
uptake of free UT in OAT1-overexpressing cells vs control cells (OAT1): significantly increased

CN(C)c1nc2c(ncn2[C@@H]2O[C@H](CO)[C@@H](O)[C@H]2O)c(=O)[nH]1 [N, N-dimethylguanosine, N,N-dimethylguanosine]
Protein-binding ratio, Normal rats in vivo (%) (n = 6) (serum protein): less than 24%
Protein-binding ratio, HSA binding in vitro (%) (n = 3) (HSA): below 50%

NCCCC[C@H](NCC(=O)O)C(=O)O [N-(1-carboxymethyl)-L-lysine]
Protein-binding ratio, Normal rats in vivo (%) (n = 6) (serum protein): < 70%

CC(=O)N[C@@H](CCCN=C(N)N)C(=O)O [N-acetyl-L-arginine]
intracellular accumulation in MRP4-overexpressing cells vs control cells (MRP4): significantly decreased

CC(=O)Nc1ccn([C@@H]2O[C@H](CO)[C@@H](O)[C@H]2O)c(=O)n1 [N-acetylcytidine]
uptake of free UT in OAT1-overexpressing cells vs control cells (OAT1): significantly increased
uptake of free UT in OAT3-overexpressing cells vs control cells (OAT3): significantly increased

O=C(O)c1cc(=O)[nH]c(=O)[nH]1 [Orotic acid, orotic acid]
Protein-binding ratio, Normal rats in vivo (%) (n = 6) (serum protein): less than 24%
Protein-binding ratio, HSA binding in vitro (%) (n = 3) (HSA): below 50%

CCCN(CCC)S(=O)(=O)c1ccc(C(=O)O)cc1 [PROB, probenecid, reference compound]
histological structure of kidney (rOATs; rats, H&E staining): unchanged

O=C(O)[C@H]1O[C@@H](Oc2ccccc2)[C@H](O)[C@@H](O)[C@@H]1O [Phenyl-β-D-glucuronide, phenyl-β-D-glucuronide]
Protein-binding ratio, Normal rats in vivo (%) (n = 6) (serum protein): < 70%
uptake of HSA-bound UT in OAT3-overexpressing cells vs control cells (OAT3): significantly increased
uptake of free UT in OAT3-overexpressing cells vs control cells (OAT3): significantly increased

O=c1[nH]cc([C@@H]2O[C@H](CO)[C@@H](O)[C@H]2O)c(=O)[nH]1 [Pseudouridine, pseudouridine]
Protein-binding ratio, Normal rats in vivo (%) (n = 6) (serum protein): less than 24%
Protein-binding ratio, HSA binding in vitro (%) (n = 3) (HSA): below 50%

[2H]c1c([2H])c([2H])c2c(O)c([2H])c(C(=O)O)nc2c1O [d4-xanthurenic acid]
renal excretion with MK-571 vs control [2]: reduce
renal excretion with PROB vs control [2]: reduce

[2H]c1c([2H])c([2H])c2c(O)c([2H])c(C(=O)O)nc2c1[2H] [d5-kynurenic acid]
Renal clearance half-life (t1/2), Control [2]: 3.7 ± 0.7 h

Cc1ccc(O[C@@H]2O[C@H](C(=O)O)[C@@H](O)[C@H](O)[C@H]2O)cc1 [p-cresol glucuronide]
Protein-binding ratio, Normal rats in vivo (%) (n = 6) (serum protein): < 70%
uptake of HSA-bound UT in OAT3-overexpressing cells vs control cells (OAT3): markedly increased
uptake of free UT in OAT3-overexpressing cells vs control cells (OAT3): markedly increased

Cc1ccc(OS(=O)(=O)O)cc1 [p-cresol sulfate]
Protein-binding ratio, Normal rats in vivo (%) (n = 6) (serum protein): > 90%
uptake of HSA-bound UT in OAT1-overexpressing cells vs control cells (OAT1): significantly increased
uptake of free UT in OAT1-overexpressing cells vs control cells (OAT1): significantly increased
uptake of free UT in OAT3-overexpressing cells vs control cells (OAT3): significantly increased

O=C(O)c1cc(O)c2cccc(O)c2n1 [xanthurenic, xanthurenic acid]
uptake of free UT in OAT1-overexpressing cells vs control cells (OAT1): mediated by OAT1 and OAT3
uptake of free UT in OAT3-overexpressing cells vs control cells (OAT3): mediated by OAT1 and OAT3
intracellular accumulation in MRP4-overexpressing cells vs control cells (MRP4): efflux by MRP4
serum level in vivo (detectability by LC-MS/MS) (rOATs; rats / in vivo): below the lowest detection limit

d3-CMPF
Renal clearance half-life (t1/2), Control [2]: 1.9 ± 0.3 h
renal excretion with MK-571 vs control [2]: did not affect
renal excretion with PROB vs control [2]: did not affect
